IC50, inhibition and Ki data for one molecule are collected here from patent publication US8921563B2, “1-[(4-hydroxypiperidin-4-yl)methyl]pyridin-2(1H)-one derivatives, preparation methods and uses thereof” (Institue of Pharmacology and Toxicology Academy of Military …, priority 2010, dated 2014).

The structures appear in SMILES notation.

One test concerns the target T1, 5-HT reuptake (Rattus norvegicus, UniProt P31652).
T1 construct: from tissue; host or cells: rat brain (hippocampi and cortex separated; results from cortex), crude synaptosomes
The test is described as follows: 5-HT reuptake inhibition in crudely produced rat synaptosomes ([3H]-5-HT). In kind it is biochemical. The settings on record: [3H]-5-HT 20.3 nM, read-out: IC50 of 5-HT reuptake inhibition in rat brain.

The target in test [1] is T2, 5-HT1A receptor (Rattus norvegicus, UniProt P19327).
T2 construct: the content of 5-HT1A receptor extracted from rat hippocampi was 5.5 mg/ml; from tissue; host or cells: Wistar rat hippocampus, membrane preparation
T2 sequence (P19327 1-422): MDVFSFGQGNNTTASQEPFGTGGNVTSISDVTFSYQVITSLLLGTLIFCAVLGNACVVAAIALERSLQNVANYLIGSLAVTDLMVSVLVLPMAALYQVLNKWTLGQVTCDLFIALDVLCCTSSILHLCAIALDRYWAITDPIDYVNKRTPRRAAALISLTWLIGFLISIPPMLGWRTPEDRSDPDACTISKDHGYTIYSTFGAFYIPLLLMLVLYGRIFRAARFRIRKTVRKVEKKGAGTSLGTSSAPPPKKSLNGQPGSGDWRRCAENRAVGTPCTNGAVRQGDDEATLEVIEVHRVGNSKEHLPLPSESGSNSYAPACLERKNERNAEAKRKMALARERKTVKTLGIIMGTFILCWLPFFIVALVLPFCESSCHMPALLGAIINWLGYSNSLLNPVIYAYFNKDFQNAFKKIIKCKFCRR
In words: Screening: competitive binding test to 5-HT1A receptor using [3H]-8-OH-DPAT, rat hippocampi membrane protein. The settings on record: [3H]-8-OH-DPAT 1.28 nM, read-out: Inhibition percent (I %), competitive binding to 5-HT1A receptor. The procedure: 1.4.1 Screening of YL Series Compounds
(1) Preparation of Membrane Proteins in Rat Hippocampi
Wister rats, 220-260 g, female and male, were sacrificed by decapitation and hippocampis were rapidly separated, weighed and to which homogenized in 10 times volume of Tris-HCl buffer solution (50 mM Tris-HCl, 5 mM MgCl2,1 mM EDTA, 0.5% (WN) BSA, 1 mM PMSF, 3 μg/ml proteinase inhibitor, 0.1% NaN3, 0.32M sucrose, pH 7.4) at 15,000 rpm for 30 s, total 5 times. The homogenate was centrifuged under 1000×g for 10 minutes and the supernatant was then centrifuged under 39000×g for 10 minutes. The precipitate was collected, and resuspended with 10 times volume of Tris-HCl buffer solution (pH 7.4) relative to the original weight, then centrifuged under 39000×g for 10 minutes. The precipitate was washed with the same buffer solution, centrifuged under 39000×g for 10 minutes and the precipitate was suspended with the above buffer solution. After sub-packaged (the whole operation procedures were performed under ice bath), the product was stored at −80° C. The protein concentration was measured by Lowrry method.
1) In the 5-HT1A receptor binding test, tubes are firstly placed under reaction condition of 25° C.
2) To all of the tubes, the receptor proteins extracted from rat hippocampi in an amount of 100 μg were added in sequence.
4) To the test tubes, 30 μl of the compound in corresponding concentrations (used for screening: 10^−5, 10^−7, 10^−9M) was added in sequence.
6) Tris-HCl buffer solution (50 mM Tris-HCl, 1 mM EDTA, 5 mM MgCl2, 0.1 mM PMSF, 0.1% NaN3, pH 7.4) was supplied to all of the tubes to reach a volume of 300 μl.
7) The reaction was performed at 25° C. for 1 h.
8) Then samples were applied to 49-type glass fibre filter, vacuum suction filtered, then washed three times with 2 ml ice-cold Tris-HCl buffer solution (50 mM Tris-HCl buffer solution, 1 mM EDTA, 5 mM MgCl2, 1 mM PMSF, 0.1% NaN3, 3 μg/ml proteinase inhibitor, pH 7.4). […] The radio-activity was measured by a scintillation counter.

The target in test [2] is T2, 5-HT1A receptor. The test is described as follows: Competitive binding test of YL-0911 and positive drugs to 5-HT1A receptor (extracted from hippocampi). The settings on record: [3H]-8-OH-DPAT 0.25 nM. How it is done:
1) Test tubes were placed in 37° C. reactor.
3) To the test tubes, 20 μl of the drug to be tested (selecting a concentration ranging from 10^−3-10^−10M) was added.
IC50 and Kd were used to calculate Ki value.

T1 sequence (P31652 whole entry): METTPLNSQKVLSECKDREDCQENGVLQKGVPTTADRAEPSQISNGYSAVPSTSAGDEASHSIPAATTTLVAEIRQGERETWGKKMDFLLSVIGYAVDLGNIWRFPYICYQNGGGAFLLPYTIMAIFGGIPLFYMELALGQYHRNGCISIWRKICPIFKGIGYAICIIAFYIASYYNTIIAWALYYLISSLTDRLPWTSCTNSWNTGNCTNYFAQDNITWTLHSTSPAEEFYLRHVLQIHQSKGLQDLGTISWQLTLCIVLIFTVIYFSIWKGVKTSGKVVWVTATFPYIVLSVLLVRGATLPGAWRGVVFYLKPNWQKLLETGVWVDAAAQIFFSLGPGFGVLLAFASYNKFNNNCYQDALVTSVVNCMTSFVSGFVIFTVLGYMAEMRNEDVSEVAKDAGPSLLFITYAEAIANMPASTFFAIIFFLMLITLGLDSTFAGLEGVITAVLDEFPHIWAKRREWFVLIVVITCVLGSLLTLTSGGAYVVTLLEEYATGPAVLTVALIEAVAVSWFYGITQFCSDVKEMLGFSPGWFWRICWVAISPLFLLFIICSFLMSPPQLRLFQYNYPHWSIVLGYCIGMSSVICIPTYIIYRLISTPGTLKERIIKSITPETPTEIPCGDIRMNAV
Protocol for 5-HT reuptake: (1) Preparation of Synaptosome Protein.
1) Rats were rapidly decapitated and the brains were removed, and hippocampi and cortex were separated on ice.
2) Same brain tissues of 3 rats were combined, to which 10 times volume of ice-bath homogenate was added, and homogenized.
3) The homogenate was centrifuged at 4° C. under 1500 g for 10 minutes and the precipitate was decanted.
4) The supernatant was centrifuged at 4° C. under 12000 g for 15 minutes and the supernatant was decanted, and the precipitate portion was a crudely produced synaptosome.
5) Washed with resuspension buffer twice and centrifuged at 4° C. under 13000 g for 10 minutes and resuspended again.
6) Protein concentration was measured by Lowrry method.
7) The synaptosome was preserved on ice, and the test was completed within 4-6 h.
1) To all tubes, the crudely produced synaptosome protein was added in an amount of 50 μg in sequence.
3) To the test tubes, the drug to be tested in various concentrations in range of 10^−3-10^−10M was added in sequence and reacted for 15 minutes. […]
7) The samples were then applied to 49-type glass fibre filters, vacuum suction filtered, washed 5 times with 10 ml ice-cooled Tris-HCl buffer. […] The radioactive intensity was measured by using LS6500 type liquid scintillation counter.
The calculated inhibition percents were used to calculate IC50 value by using Orgin7.0/GraphPad Prism 4.0 software.

The IC50 is the concentration at which inhibition is half-maximal. For orientation: inhibition means the relative decrease from the control value, in per cent. By Ki is commonly meant the dissociation constant of the complex between target and ligand, obtained from inhibition or displacement. Higher therefore signals lower affinity. On to `O=c1ccccn1CC1(O)CCN(Cc2ccccc2)CC1` [Compound 1, 1-[(1-benzyl-4-hydroxypiperidin-4-yl)-methyl]-pyridin-2(1H)-one], for which, on 5-HT reuptake, the IC50 was determined as 8.51 ± 0.23 nM. Besides, on 5-HT1A receptor [1] (compound 10^-5 mol/L), the inhibition at 10 µM was found to be 100%. For the same molecule, the inhibition at 0.1 µM on 5-HT1A receptor [1] (compound 10^-7 mol/L) came to 85%. On 5-HT1A receptor [2], this molecule yielded a Ki of 0.44 ± 0.32 nM.
